Data published in patent publication US11746109B2, “Crystalline forms of 2-[(2S)-1-azabicyclo[2.2.2]oct-2-yl]-6-(3-methyl-1H-pyrazol-4-yl)thieno[3,2-d]pyrimidin-4(3H)-one hemihydrate” (TAKEDA PHARMACEUTICAL COMPANY LIMITED, priority 2016, dated 2023).

Assays:
Format in all cases: physicochemical
[1] = Chemical and optical stability of crystalline forms on storage
[2] = Hygroscopicity of crystalline forms
[3] = Solubility in 200 mM phosphate buffer (pH 6.8); conditions: for solubility: 20 hrs, hemihydrate; for solubility at 20 h: phosphate buffer, pH 6.8, aqueous buffer, thermodynamic from solid
Description: About 2 mg of Compound 1 Crystalline Form A made in example 2 or Compound 1 Crystalline Form I made in example 3-2 and 2 mL of 200 mM phosphate buffer (pH 6.8) were added into a glass test tube. The test tube was shaken vigorously and incubated at 10° C., 20° C., 30° C. or 40° C. for 20 hrs. After the incubation, the suspension was centrifuged and the supernatant was filtered through a 0.22 μm pore membrane filter. The filtrate solutions were diluted 2-fold with 50 mM sodium perchlorate buffer (pH 2.5)/acetonitrile (1/1, v/v). Concentration was determined by HPLC.

[4] = Solubility in water/DMSO at 60° C.; conditions: for solubility at 24 h: water/DMSO, 60 °C, organic solvent or mixture, thermodynamic from solid; for solubility at 24 h / solubility: Water/DMSO at 60° C.; for solubility: hemihydrate
Description: A solution of DMSO/water with known water content was added to a glass vial and heated to 60° C. Crystals of Compound 1 Crystalline Form I or Compound 1 Crystalline Form A were added to the vial until a suspension was obtained. The suspension was stirred via magnetic stirring and incubated for 24 hrs at 60° C. After incubation, the suspension was filtered at 60° C. 10 μL of the filtrate was sampled and diluted with 990 μL of acetonitrile/water (1/1, v/v). Sample concentration of Compound 1 was determined by HPLC. […] The experimental solubility results are summarized below in Tables 5 and 6.

[5] = Estimated solubility at 55° C. in recrystallization solvents; conditions: organic solvent or mixture, thermodynamic from solid
Description: Recrystallization of Compound 1 Crystalline Form A was investigated in various solvent conditions. […] One of water, heptane or IPE was added as an anti-solvent to maintain the saturation state. Recrystallization in heptane yielded a sufficient amount of solids for analysis after gradual cooling. […] Crystals obtained from THF, trifluoroethanol, THF/heptane, chloroform/heptane, chloroform/IPE and trifluoroethanol/IPE were characterized as solvates by XRPD and TGA/DSC analysis. Crystals obtained from all other solvents were confirmed to be Compound 1 Crystalline Form A based on XRPD analysis.

[6] = 60° C./75% relative humidity (open) for at least eight weeks
[7] = 80° C. (closed) for at least eight weeks

## Cc1[nH]ncc1-c1cc2nc([C@@H]3CC4CCN3CC4)[nH]c(=O)c2s1 [Compound 1 Crystalline Form I, 2-[(2S)-1-azabicyclo[2.2.2]oct-2-yl]-6-(3-methyl-1H-pyrazol-4-yl)thieno[3,2-d]pyrimidin-4(3H)-one hemihydrate]
[1]; [6]
  Chemical and optical stability: chemically and optically stable
[1]; [7]
  Chemical and optical stability: chemically and optically stable
[2]; at 25° C.
  Hygroscopicity: not hygroscopic
[2]; at 40° C.
  Hygroscopicity: not hygroscopic
[3]; 10 °C
  solubility: 0.063 mg/mL
[3]; 20 °C
  solubility: 0.071 mg/mL
[3]; 30 °C
  solubility: 0.08 mg/mL
[3]; 40 °C
  solubility: 0.099 mg/mL
[4]; at 60° C. (FIG. 7)
  Solubility in water/DMSO relative to Compound 1 Crystalline Form A: lower
[4]; 0 % water by volume
  solubility at 24 h: 134 mg/mL
[4]; 3 % water by volume
  solubility at 24 h: 108 mg/mL
[4]; 4 % water by volume
  solubility at 24 h: 92.2 mg/mL
[4]; 4.5 % water by volume
  solubility at 24 h: 74.8 mg/mL
[4]; 6 % water by volume
  solubility at 24 h: 65.8 mg/mL
[4]; 8 % water by volume
  solubility at 24 h: 34.8 mg/mL

## Cc1[nH]ncc1-c1cc2nc([C@@H]3CC4CCN3CC4)[nH]c(=O)c2s1 [Compound 1 Crystalline Form A, 2-[(2S)-1-azabicyclo[2.2.2]oct-2-yl]-6-(3-methyl-1H-pyrazol-4-yl)thieno[3,2-d]pyrimidin-4(3H)-one hemihydrate]
[1]; [6]
  Chemical and optical stability: chemically and optically stable
[1]; [7]
  Chemical and optical stability: chemically and optically stable
[2]; at 25° C.
  Hygroscopicity: not hygroscopic
[2]; at 40° C.
  Hygroscopicity: not hygroscopic
[3]; 10 °C
  solubility at 20 h: 0.102 mg/mL
[3]; 20 °C
  solubility at 20 h: 0.104 mg/mL
[3]; 30 °C
  solubility at 20 h: 0.115 mg/mL
[3]; 40 °C
  solubility at 20 h: 0.136 mg/mL
[4]; 0 % water by volume
  solubility: 153.8 mg/mL
[4]; 6 % water by volume
  solubility: 73.4 mg/mL
[4]; 8.5 % water by volume
  solubility at 24 h: 51 mg/mL
[4]; 8.7 % water by volume
  solubility at 24 h: 44 mg/mL
[4]; 9.8 % water by volume
  solubility at 24 h: 38.5 mg/mL
[4]; 10.7 % water by volume
  solubility at 24 h: 32.1 mg/mL
[4]; 11.3 % water by volume
  solubility at 24 h: 28.6 mg/mL
[4]; 11.8 % water by volume
  solubility at 24 h: 25.7 mg/mL
[5]; solvent Acetone
  solubility: < 2 mg/mL
[5]; solvent Acetonitrile
  solubility: < 2 mg/mL
[5]; solvent Chloroform
  solubility: 2.8 mg/mL
[5]; solvent Ethanol
  solubility: 10.5 mg/mL
[5]; solvent Ethyl acetate
  solubility: < 2 mg/mL
[5]; solvent Formamide
  solubility: 10 mg/mL
[5]; solvent IPA
  solubility: 6.7 mg/mL
[5]; solvent MEK
  solubility: 2.9 mg/mL
[5]; solvent Methanol
  solubility: 33.3 mg/mL
[5]; solvent THF
  solubility: 9.1 mg/mL
[5]; solvent Toluene
  solubility: < 2 mg/mL
[5]; solvent Trifluoroethanol
  solubility: > 100 mg/mL
